These are literature values, as cited in patent publication US20170083675A1, “Method for Selecting Patient Subpopulation for Custirsen Treatment” (OncoGenex Technologies Inc., priority 2015, published 2017).

The subject of this data set is metastatic castrate resistant prostate cancer (CRPC). The following applies: second-line chemotherapy.

As to `CO[C@H]1C(=O)[C@]2(C)[C@@H](OC)C[C@H]3OC[C@@]3(OC(C)=O)[C@H]2[C@H](OC(=O)c2ccccc2)[C@]2(O)C[C@H](OC(=O)[C@H](O)[C@@H](NC(=O)OC(C)(C)C)c3ccccc3)C(C)=C1C2(C)C` [cabazitaxel], the “survival compared to mitoxantrone (in words)” value is on record as “survival advantage”.
